In PubChem BioAssay AID1259407 (Chemical Carcinogenesis Research Information System (CCRIS), 2018):
Calls of active or inactive are those of the source. How the calls were made is not given here.

Tested on: CCRIS mutagenicity, Ames/micronucleus/aberration tests
Assay: CCRIS mutagenicity studies

Measured: mutagenic call

Cl/C=C\Cl
inactive: End Point: IN VITRO CHROMOSOMAL ABERRATIONS, Test System: CHINESE HAMSTER LUNG (CHL), Metabolic Activation: NONE inactive; negative | End Point: IN VITRO CHROMOSOMAL ABERRATIONS, Test System: CHINESE HAMSTER LUNG (CHL), Metabolic Activation: RAT. LIVER, S-9, KC-400 inactive; negative | Test System: AMES SALMONELLA TYPHIMURIUM, Strain/Indicator: TA97, Metabolic Activation: HAMSTER LIVER S-9, AROCLOR 1254 (10%), Method: PREINCUBATION inactive; negative | Test System: AMES SALMONELLA TYPHIMURIUM, Strain/Indicator: TA97, Metabolic Activation: HAMSTER LIVER S-9, AROCLOR 1254 (30%), Method: PREINCUBATION inactive; negative | Test System: AMES SALMONELLA TYPHIMURIUM, Strain/Indicator: TA97, Metabolic Activation: HAMSTER, LIVER, S-9, AROCLOR 1254 (10%), Method: PREINCUBATION inactive; negative | Test System: AMES SALMONELLA TYPHIMURIUM, Strain/Indicator: TA97, Metabolic Activation: HAMSTER, LIVER, S-9, AROCLOR 1254 (30%), Method: PREINCUBATION inactive; negative | Test System: AMES SALMONELLA TYPHIMURIUM, Strain/Indicator: TA97, Metabolic Activation: NONE, Method: PREINCUBATION inactive; negative | Test System: AMES SALMONELLA TYPHIMURIUM, Strain/Indicator: TA97, Metabolic Activation: RAT LIVER S-9, AROCLOR 1254 (10% OR 30%), Method: PREINCUBATION inactive; negative | Test System: AMES SALMONELLA TYPHIMURIUM, Strain/Indicator: TA97, Metabolic Activation: RAT, LIVER, S-9, AROCLOR 1254 (10 OR 30%), Method: PREINCUBATION inactive; negative | Test System: AMES SALMONELLA TYPHIMURIUM, Strain/Indicator: TA98, Metabolic Activation: HAMSTER LIVER S-9, AROCLOR 1254 (10%), Method: PREINCUBATION inactive; negative | Test System: AMES SALMONELLA TYPHIMURIUM, Strain/Indicator: TA98, Metabolic Activation: HAMSTER LIVER S-9, AROCLOR 1254 (30%), Method: PREINCUBATION inactive; negative | Test System: AMES SALMONELLA TYPHIMURIUM, Strain/Indicator: TA98, Metabolic Activation: HAMSTER, LIVER, S-9, AROCLOR 1254 (10%), Method: PREINCUBATION inactive; negative | Test System: AMES SALMONELLA TYPHIMURIUM, Strain/Indicator: TA98, Metabolic Activation: HAMSTER, LIVER, S-9, AROCLOR 1254 (30%), Method: PREINCUBATION inactive; negative | Test System: AMES SALMONELLA TYPHIMURIUM, Strain/Indicator: TA98, Metabolic Activation: NONE, Method: PREINCUBATION inactive; negative | Test System: AMES SALMONELLA TYPHIMURIUM, Strain/Indicator: TA98, Metabolic Activation: RAT LIVER S-9, AROCLOR 1254 (10% OR 30%), Method: PREINCUBATION inactive; negative | Test System: AMES SALMONELLA TYPHIMURIUM, Strain/Indicator: TA98, Metabolic Activation: RAT, LIVER, S-9, AROCLOR 1254 (10 OR 30%), Method: PREINCUBATION inactive; negative | Test System: AMES SALMONELLA TYPHIMURIUM, Strain/Indicator: TA100, Metabolic Activation: HAMSTER LIVER S-9, AROCLOR 1254 (10%), Method: PREINCUBATION inactive; negative | Test System: AMES SALMONELLA TYPHIMURIUM, Strain/Indicator: TA100, Metabolic Activation: HAMSTER LIVER S-9, AROCLOR 1254 (30%), Method: PREINCUBATION inactive; negative | Test System: AMES SALMONELLA TYPHIMURIUM, Strain/Indicator: TA100, Metabolic Activation: HAMSTER, LIVER, S-9, AROCLOR 1254 (10%), Method: PREINCUBATION inactive; negative | Test System: AMES SALMONELLA TYPHIMURIUM, Strain/Indicator: TA100, Metabolic Activation: HAMSTER, LIVER, S-9, AROCLOR 1254 (30%), Method: PREINCUBATION inactive; negative | Test System: AMES SALMONELLA TYPHIMURIUM, Strain/Indicator: TA100, Metabolic Activation: NONE, Method: PREINCUBATION inactive; negative | Test System: AMES SALMONELLA TYPHIMURIUM, Strain/Indicator: TA100, Metabolic Activation: RAT LIVER S-9, AROCLOR 1254 (10% OR 30%), Method: PREINCUBATION inactive; negative | Test System: AMES SALMONELLA TYPHIMURIUM, Strain/Indicator: TA100, Metabolic Activation: RAT, LIVER, S-9, AROCLOR 1254 (10 OR 30%), Method: PREINCUBATION inactive; negative | Test System: AMES SALMONELLA TYPHIMURIUM, Strain/Indicator: TA1535, Metabolic Activation: HAMSTER LIVER S-9, AROCLOR 1254 (10%), Method: PREINCUBATION inactive; negative | Test System: AMES SALMONELLA TYPHIMURIUM, Strain/Indicator: TA1535, Metabolic Activation: HAMSTER, LIVER, S-9, AROCLOR 1254 (10%), Method: PREINCUBATION inactive; negative | Test System: AMES SALMONELLA TYPHIMURIUM, Strain/Indicator: TA1535, Metabolic Activation: HAMSTER, LIVER, S-9, AROCLOR 1254 (30%), Method: PREINCUBATION inactive; negative | Test System: AMES SALMONELLA TYPHIMURIUM, Strain/Indicator: TA1535, Metabolic Activation: NONE, Method: PREINCUBATION inactive; negative | Test System: AMES SALMONELLA TYPHIMURIUM, Strain/Indicator: TA1535, Metabolic Activation: RAT LIVER S-9, AROCLOR 1254 (10% OR 30%), Method: PREINCUBATION inactive; negative | Test System: AMES SALMONELLA TYPHIMURIUM, Strain/Indicator: TA1535, Metabolic Activation: RAT, LIVER, S-9, AROCLOR 1254 (10 OR 30%), Method: PREINCUBATION inactive; negative | Test System: AMES SALMONELLA TYPHIMURIUM, Strain/Indicator: TA1537, Metabolic Activation: HAMSTER LIVER S-9, AROCLOR 1254 (30%), Method: PREINCUBATION inactive; negative | Test System: AMES SALMONELLA TYPHIMURIUM, Strain/Indicator: TA1537, Metabolic Activation: HAMSTER, LIVER, S-9, AROCLOR 1254 (30%), Method: PREINCUBATION inactive; negative | Test System: AMES SALMONELLA TYPHIMURIUM, Strain/Indicator: TA1537, Metabolic Activation: NONE, Method: PREINCUBATION inactive; negative | Test System: AMES SALMONELLA TYPHIMURIUM, Strain/Indicator: TA1537, Metabolic Activation: RAT LIVER S-9, AROCLOR 1254 (30%), Method: PREINCUBATION inactive; negative | Test System: AMES SALMONELLA TYPHIMURIUM, Strain/Indicator: TA1537, Metabolic Activation: RAT, LIVER, S-9, AROCLOR 1254 (30%), Method: PREINCUBATION inactive; negative
